{
  "source": "patent US9790216B2",
  "about": "“3-substituted cyclopentylamine derivatives” (Merck Patent GmbH, priority 2013, dated 2017)",
  "target": "T1, human fatty acid synthase FASN (Homo sapiens, UniProt P49327)",
  "T1 construct": "human recombinant full-length fatty acid synthase; made in house; host or cells: SF9 cells",
  "T1 sequence (P49327 whole entry)": "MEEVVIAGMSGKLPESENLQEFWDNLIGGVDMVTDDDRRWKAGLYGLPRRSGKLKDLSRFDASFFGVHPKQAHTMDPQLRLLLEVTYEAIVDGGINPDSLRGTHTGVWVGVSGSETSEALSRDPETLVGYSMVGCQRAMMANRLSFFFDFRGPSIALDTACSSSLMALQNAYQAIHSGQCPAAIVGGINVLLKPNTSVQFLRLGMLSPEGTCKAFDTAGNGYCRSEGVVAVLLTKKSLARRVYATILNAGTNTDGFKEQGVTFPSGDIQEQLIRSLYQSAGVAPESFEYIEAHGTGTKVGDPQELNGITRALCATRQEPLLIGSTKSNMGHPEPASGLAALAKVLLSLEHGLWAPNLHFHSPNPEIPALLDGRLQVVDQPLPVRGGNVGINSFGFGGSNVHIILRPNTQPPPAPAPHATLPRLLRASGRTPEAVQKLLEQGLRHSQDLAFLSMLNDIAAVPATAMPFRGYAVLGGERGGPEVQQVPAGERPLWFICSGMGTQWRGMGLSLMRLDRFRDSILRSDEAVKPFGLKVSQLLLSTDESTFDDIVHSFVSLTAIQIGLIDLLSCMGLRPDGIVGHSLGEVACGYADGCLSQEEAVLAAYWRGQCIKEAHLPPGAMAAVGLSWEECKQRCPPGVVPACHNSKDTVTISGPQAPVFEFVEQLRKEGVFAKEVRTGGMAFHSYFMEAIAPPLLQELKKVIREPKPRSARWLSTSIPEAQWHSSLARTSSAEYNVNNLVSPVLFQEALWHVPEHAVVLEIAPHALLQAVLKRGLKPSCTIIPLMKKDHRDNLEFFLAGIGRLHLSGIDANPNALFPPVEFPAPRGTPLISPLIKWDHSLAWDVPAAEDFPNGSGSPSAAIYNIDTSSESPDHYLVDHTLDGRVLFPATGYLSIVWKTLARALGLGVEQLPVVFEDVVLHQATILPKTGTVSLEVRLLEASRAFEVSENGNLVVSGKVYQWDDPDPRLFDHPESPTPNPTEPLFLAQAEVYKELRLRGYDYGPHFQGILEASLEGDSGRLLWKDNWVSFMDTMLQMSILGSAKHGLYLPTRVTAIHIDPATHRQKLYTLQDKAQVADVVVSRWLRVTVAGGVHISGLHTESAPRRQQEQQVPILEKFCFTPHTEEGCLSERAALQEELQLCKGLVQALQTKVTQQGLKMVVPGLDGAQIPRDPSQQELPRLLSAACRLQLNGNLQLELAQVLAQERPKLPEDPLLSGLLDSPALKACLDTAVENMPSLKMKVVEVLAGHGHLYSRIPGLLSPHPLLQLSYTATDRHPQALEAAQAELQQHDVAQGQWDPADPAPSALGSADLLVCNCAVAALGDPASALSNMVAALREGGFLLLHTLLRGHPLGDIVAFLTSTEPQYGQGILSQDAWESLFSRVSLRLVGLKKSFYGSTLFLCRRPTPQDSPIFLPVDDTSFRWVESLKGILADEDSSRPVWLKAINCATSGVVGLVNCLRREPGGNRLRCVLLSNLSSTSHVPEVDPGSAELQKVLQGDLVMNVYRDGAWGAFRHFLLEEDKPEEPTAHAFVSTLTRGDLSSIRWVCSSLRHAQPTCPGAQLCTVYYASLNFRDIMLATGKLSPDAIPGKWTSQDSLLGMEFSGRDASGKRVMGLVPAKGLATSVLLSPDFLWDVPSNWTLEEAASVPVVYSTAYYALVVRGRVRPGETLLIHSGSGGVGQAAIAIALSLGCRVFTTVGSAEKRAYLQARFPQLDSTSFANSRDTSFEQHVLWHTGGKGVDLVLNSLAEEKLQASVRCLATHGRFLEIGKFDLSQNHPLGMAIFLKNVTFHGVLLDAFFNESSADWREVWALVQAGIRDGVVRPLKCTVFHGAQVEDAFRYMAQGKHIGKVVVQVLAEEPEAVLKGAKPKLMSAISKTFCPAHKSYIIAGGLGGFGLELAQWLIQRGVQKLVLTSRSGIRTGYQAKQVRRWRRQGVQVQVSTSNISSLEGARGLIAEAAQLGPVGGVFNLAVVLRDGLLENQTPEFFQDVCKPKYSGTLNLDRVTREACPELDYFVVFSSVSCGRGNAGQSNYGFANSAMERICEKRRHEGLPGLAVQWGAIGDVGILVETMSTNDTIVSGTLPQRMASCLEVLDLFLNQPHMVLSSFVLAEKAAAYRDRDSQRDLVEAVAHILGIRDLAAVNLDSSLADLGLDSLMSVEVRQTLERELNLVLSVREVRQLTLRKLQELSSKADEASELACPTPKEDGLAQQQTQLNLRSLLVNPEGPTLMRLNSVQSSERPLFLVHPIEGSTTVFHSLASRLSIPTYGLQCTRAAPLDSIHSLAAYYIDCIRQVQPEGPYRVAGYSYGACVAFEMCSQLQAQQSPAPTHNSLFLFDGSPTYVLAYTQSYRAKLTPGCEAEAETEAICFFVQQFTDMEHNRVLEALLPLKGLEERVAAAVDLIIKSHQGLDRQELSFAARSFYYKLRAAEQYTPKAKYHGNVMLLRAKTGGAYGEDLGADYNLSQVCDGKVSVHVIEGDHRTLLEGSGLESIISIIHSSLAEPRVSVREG",
  "test": "Biochemical activity testing of human fatty acid synthase FASN (NADPH fluorescence intensity enzyme assay)",
  "settings": "human recombinant full-length FASN, inhibition",
  "description": "• GST=Glutathione-S-transferase • FRET=Fluorescence resonance energy transfer • HTRF®=(homogenous time resolved fluorescence) • HEPES=4-(2-hydroxyethyl)-1-piperazine ethanesulfonic acid buffer • DTT=Dithiothreitol • BSA=bovine serum albumin • CHAPS=detergent; • CHAPS=3-[(3-cholamidopropyl)dimethylammonio]-1-propanesulfonate Biochemical Activity Testing of Human Fatty Acid Synthase FASN\nFatty acid synthase FASN is a multifunctional enzyme with seven catalytic activities thereby synthesising long chain fatty acids especially palmitoyl-CoA in the presence of co-factor NADPH starting from the substrates acetyl-CoA and malonyl-CoA. The reductive synthesis is realized by the oxidation of NADPH to NADP. Since NADPH has a high fluorescence intensity quantum yield compared to NADP with excitation at 340 nm and emission at 460 nm, the reaction can be monitored via the decrease in fluorescence intensity. The biochemical FASN activity testing was performed as 384 well two-time-point kinetic fluorescence intensity assay format in Greiner low volume medium binding 384-well black microtiter plates in a total assay volume of 8 μl and was used for high throughput screen. In each well 3 μl 40 nM human recombinant full-length fatty acid synthase (produced in-house in SF9 cells) were dispensed in the following assay buffer: 50 mM potassium phosphate buffer pH 7.0, 0.005% (w/v) BSA, 2 mM Glutathione, 0.02% Tween-20. Then 2 μl of 200 μM NADPH in assay buffer were added, followed by the addition of the test compounds in 10 dilution concentrations starting with 30 μM (final concentration) to get a final DMSO content of 1% (v/v). The mixture was incubated for at least 15 min at room temperature. After the pre-incubation the enzymatic reaction was started by the addition of 2 μl substrate solution (80 μM acetyl-CoA, 240 μM malonyl-CoA). A first fluorescence intensity measurement (time point one) was performed with an Envision multimode reader (Perkin Elmer LAS Germany GmbH) at excitation wavelength 340 nm (lamp mode) and emission wavelength 460 nm. The reaction was incubated for 30 minutes at room temperature. After this the fluorescence intensity was measured again in the Envision using the same parameters as described above (second time point measurement). The data were analysed by subtracting the first time point measurement value from the second time point measurement value (after the enzymatic reaction). The differences of the emission signals were determined. These reflect directly the conversion rate of NADPH. The full value used was the inhibitor-free reaction. A pharmacological zero value was used like GSK837149A (Sigma-Aldrich) in a final concentration of 5-10 μM. The inhibitory values (IC50) were determined using either the program Symyx Assay Explorer® or Condosseo® from GeneData.",
  "data": [
    {"smiles": "CC(C)c1nnc([C@H]2CC[C@@H](N(C)C(=O)c3ccc(-c4ccc(C#N)cc4)cc3)C2)o1", "note": "[Compound A10, 4′-cyano-biphenyl-4-carboxylic acid [(1R,3S)-3-(5-isopropyl-[1,3,4]oxadiazol-2-yl)-cyclopentyl]-methyl-amide]", "values": [
      {"measurement": "IC50", "result": "< 300", "unit": "nM"}
    ]}
  ]
}
